Experiments:
Assay type in all cases: in vivo
Conditions in all cases: wettable powder applied 3 days after transplanting, judged after 25 days
Cyperus serotinus = assay: Test Example 1: herbicidal effects, paddy-field pot test
How it was run: (§1)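 Paddy-soil pots sown with weed seeds, germinated Cyperus serotinus tubers and 2.2-leaf rice transplants, kept flooded in a greenhouse. Wettable powder diluted in water applied at set dosage 3 days after transplanting. Weed control and rice injury scored 25 days later on a 0-5 growth-inhibition scale.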

Scirpus joncoides = assay: as above
How it was run: as §1

[1] = tested on: annual broad-leaved weeds (Lindernia spp., Rotala indica); assay: as above
How it was run: as §1

[2] = tested on: barnyardgrass (Echinochloa oryzicola Vasing.); assay: as above
How it was run: as §1

[3] = tested on: transplanted paddy-field rice; assay: Test Example 1: crop injury against transplanted paddy-field rice
How it was run: as §1

SMILES | Herbicidal effects Cyperus serotinus (Cyperus serotinus; chemical dosage 20 g/a) | Herbicidal effects Scirpus joncoides (Scirpus joncoides; chemical dosage 20 g/a) | Herbicidal effects Broad leaf ([1]; chemical dosage 20 g/a) | Herbicidal effects Barnyard grass ([2]; chemical dosage 20 g/a) | Crop injury against transplanted rice ([3]; chemical dosage 20 g/a) | Herbicidal effects Cyperus serotinus (Cyperus serotinus; chemical dosage 10 g/a) | Herbicidal effects Scirpus joncoides (Scirpus joncoides; chemical dosage 10 g/a) | Herbicidal effects Broad leaf ([1]; chemical dosage 10 g/a) | Herbicidal effects Barnyard grass ([2]; chemical dosage 10 g/a) | Crop injury against transplanted rice ([3]; chemical dosage 10 g/a) | Herbicidal effects Cyperus serotinus (Cyperus serotinus; chemical dosage 12.5 g/a) | Herbicidal effects Cyperus serotinus (Cyperus serotinus; chemical dosage 25 g/a) | Herbicidal effects Scirpus joncoides (Scirpus joncoides; chemical dosage 12.5 g/a) | Herbicidal effects Scirpus joncoides (Scirpus joncoides; chemical dosage 25 g/a) | Herbicidal effects Broad leaf ([1]; chemical dosage 12.5 g/a) | Herbicidal effects Broad leaf ([1]; chemical dosage 25 g/a) | Herbicidal effects Barnyard grass ([2]; chemical dosage 12.5 g/a) | Herbicidal effects Barnyard grass ([2]; chemical dosage 25 g/a) | Crop injury against transplanted rice ([3]; chemical dosage 12.5 g/a) | Crop injury against transplanted rice ([3]; chemical dosage 25 g/a)
Cc1coc2cccc(Oc3nnc(Cl)cc3O)c12 [Example 184] | 5 (Growth inhibition rate; 91 to 100%) | 4 (Growth inhibition rate; 71 to 90%) | 5 (Growth inhibition rate; 91 to 100%) | 0 (Growth inhibition rate; 0 to 10%) | 0 (Growth inhibition rate; 0 to 10%) |  |  |  |  |  |  |  |  |  |  |  |  |  |  | 
Oc1cc(Cl)nnc1Oc1c(F)cccc1Cl [Example 232] | 5 (Growth inhibition rate; 91 to 100%) | 4 (Growth inhibition rate; 71 to 90%) | 5 (Growth inhibition rate; 91 to 100%) | 4 (Growth inhibition rate; 71 to 90%) | 0 (Growth inhibition rate; 0 to 10%) | 4 (Growth inhibition rate; 71 to 90%) | 3 (Growth inhibition rate; 51 to 70%) | 5 (Growth inhibition rate; 91 to 100%) | 4 (Growth inhibition rate; 71 to 90%) | 0 (Growth inhibition rate; 0 to 10%) |  |  |  |  |  |  |  |  |  | 
Cc1ccc(C2CC2)c(Oc2nnc(Cl)cc2O)c1 [Example 218] | 5 (Growth inhibition rate; 91 to 100%) | 5 (Growth inhibition rate; 91 to 100%) | 5 (Growth inhibition rate; 91 to 100%) | 1 (Growth inhibition rate; 11 to 30%) | 0 (Growth inhibition rate; 0 to 10%) | 5 (Growth inhibition rate; 91 to 100%) | 5 (Growth inhibition rate; 91 to 100%) | 5 (Growth inhibition rate; 91 to 100%) | 0 (Growth inhibition rate; 0 to 10%) | 0 (Growth inhibition rate; 0 to 10%) |  |  |  |  |  |  |  |  |  | 
Oc1cc(Cl)nnc1Oc1c(Cl)cccc1Cl [Example 240] |  |  |  |  |  |  |  |  |  |  | 5 (Growth inhibition rate; 91 to 100%) | 5 (Growth inhibition rate; 91 to 100%) | 3 (Growth inhibition rate; 51 to 70%) | 4 (Growth inhibition rate; 71 to 90%) | 5 (Growth inhibition rate; 91 to 100%) | 5 (Growth inhibition rate; 91 to 100%) | 2 (Growth inhibition rate; 31 to 50%) | 3 (Growth inhibition rate; 51 to 70%) | 0 (Growth inhibition rate; 0 to 10%) | 0 (Growth inhibition rate; 0 to 10%)
Cc1cccc(C(C)(C)C)c1Oc1nnc(Cl)cc1O [Example 22] |  |  |  |  |  |  |  |  |  |  | 3 (Growth inhibition rate; 51 to 70%) | 4 (Growth inhibition rate; 71 to 90%) | 2 (Growth inhibition rate; 31 to 50%) | 4 (Growth inhibition rate; 71 to 90%) | 5 (Growth inhibition rate; 91 to 100%) | 5 (Growth inhibition rate; 91 to 100%) | 1 (Growth inhibition rate; 11 to 30%) | 2 (Growth inhibition rate; 31 to 50%) | 1 (Growth inhibition rate; 11 to 30%) | 2 (Growth inhibition rate; 31 to 50%)
Oc1cc(Cl)nnc1Oc1cccc2c1C1CC1C2 (stereo not drawn) [Example 14] |  |  |  |  |  | 5 (Growth inhibition rate; 91 to 100%) | 4 (Growth inhibition rate; 71 to 90%) | 5 (Growth inhibition rate; 91 to 100%) | 0 (Growth inhibition rate; 0 to 10%) | 0 (Growth inhibition rate; 0 to 10%) |  |  |  |  |  |  |  |  |  | 
Oc1cc(Cl)nnc1Oc1c(F)cccc1Br [Example 233] | 5 (Growth inhibition rate; 91 to 100%) | 5 (Growth inhibition rate; 91 to 100%) | 5 (Growth inhibition rate; 91 to 100%) | 4 (Growth inhibition rate; 71 to 90%) | 0 (Growth inhibition rate; 0 to 10%) | 4 (Growth inhibition rate; 71 to 90%) | 3 (Growth inhibition rate; 51 to 70%) | 4 (Growth inhibition rate; 71 to 90%) | 3 (Growth inhibition rate; 51 to 70%) | 0 (Growth inhibition rate; 0 to 10%) |  |  |  |  |  |  |  |  |  | 
Oc1cc(Cl)nnc1Oc1c(Br)ccc2c1CCC2 [Example 304] | 5 (Growth inhibition rate; 91 to 100%) | 5 (Growth inhibition rate; 91 to 100%) | 5 (Growth inhibition rate; 91 to 100%) | 4 (Growth inhibition rate; 71 to 90%) | 0 (Growth inhibition rate; 0 to 10%) | 4 (Growth inhibition rate; 71 to 90%) | 4 (Growth inhibition rate; 71 to 90%) | 5 (Growth inhibition rate; 91 to 100%) | 4 (Growth inhibition rate; 71 to 90%) | 0 (Growth inhibition rate; 0 to 10%) |  |  |  |  |  |  |  |  |  | 
CC1COc2cccc(Oc3nnc(Cl)cc3O)c21 (stereo not drawn) [Example 182] | 5 (Growth inhibition rate; 91 to 100%) | 4 (Growth inhibition rate; 71 to 90%) | 5 (Growth inhibition rate; 91 to 100%) | 2 (Growth inhibition rate; 31 to 50%) | 0 (Growth inhibition rate; 0 to 10%) |  |  |  |  |  |  |  |  |  |  |  |  |  |  | 
Oc1cc(Cl)nnc1Oc1cccc2c1CCO2 [Example 181] | 5 (Growth inhibition rate; 91 to 100%) | 4 (Growth inhibition rate; 71 to 90%) | 5 (Growth inhibition rate; 91 to 100%) | 2 (Growth inhibition rate; 31 to 50%) | 0 (Growth inhibition rate; 0 to 10%) | 4 (Growth inhibition rate; 71 to 90%) | 3 (Growth inhibition rate; 51 to 70%) | 5 (Growth inhibition rate; 91 to 100%) | 1 (Growth inhibition rate; 11 to 30%) | 0 (Growth inhibition rate; 0 to 10%) |  |  |  |  |  |  |  |  |  | 
CC1CCc2cccc(Oc3nnc(Cl)cc3O)c21 (stereo not drawn) [Example 172] | 5 (Growth inhibition rate; 91 to 100%) | 5 (Growth inhibition rate; 91 to 100%) | 5 (Growth inhibition rate; 91 to 100%) | 5 (Growth inhibition rate; 91 to 100%) | 0 (Growth inhibition rate; 0 to 10%) | 4 (Growth inhibition rate; 71 to 90%) | 5 (Growth inhibition rate; 91 to 100%) | 5 (Growth inhibition rate; 91 to 100%) | 5 (Growth inhibition rate; 91 to 100%) | 0 (Growth inhibition rate; 0 to 10%) |  |  |  |  |  |  |  |  |  | 
CCc1cccc(C2CC2)c1Oc1nnc(Cl)cc1O [Example 269] | 5 (Growth inhibition rate; 91 to 100%) | 5 (Growth inhibition rate; 91 to 100%) | 5 (Growth inhibition rate; 91 to 100%) | 3 (Growth inhibition rate; 51 to 70%) | 5 (Growth inhibition rate; 91 to 100%) | 5 (Growth inhibition rate; 91 to 100%) | 5 (Growth inhibition rate; 91 to 100%) | 5 (Growth inhibition rate; 91 to 100%) | 2 (Growth inhibition rate; 31 to 50%) | 3 (Growth inhibition rate; 51 to 70%) |  |  |  |  |  |  |  |  |  | 

From patent US7964531B2, “3-phenoxy-4-pyridazinol derivatives and herbicidal composition containing the same” (Mitsui Chemicals Agro, Inc., priority 2001, dated 2011)
